Data as given in the supplement of paper PMC4862054.

Tests used:
MCF-10A = details: 72 h
How it was run: (§1)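 The plates used were 384-well plates holding compound at 5 concentrations in 10-fold steps across a compound-specific 10,000-fold range, into which breast cancer cell lines were seeded in 20 µl suspension. Following 72 h incubation, CellTox Green fluorescence was read at 485/520 nm, and CellTiter-Glo luminescence was read after 10 min at room temperature. Normalisation on each plate used 0.1 % DMSO and a positive kill control. Dose-response curves gave the EC50, which was censored at the top concentration.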

MDA-MB-436 [1] = details: 72 h
How it was run: as §1

HCC1937 = details: 72 h
How it was run: as §1

SK-BR-3 [2] = details: 72 h
How it was run: as §1

HCC1599 [3] = details: 72 h
How it was run: as §1

CAL-148 [4] = experiment: normalised viability (% of control), CellTiter-Blue; higher = more viable cells (about 100 = DMSO control); details: incubation time: 72 h
How it was run: (§2)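 Vehicle (100) and a positive kill control (0) anchored the normalisation of each plate, and Z'-factor was used for quality control. Breast cancer cell lines in 20 µl suspension were incubated 72 h over compound in 5 µl medium in 384-well plates, followed by CellTiter-Blue at 560/590 nm. The value is normalised viability at a single listed concentration of the series.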

CAL-51 [5] = experiment: as above; details: incubation time: 72 h
How it was run: as §2

CAL-85-1 [6] = experiment: as above; details: incubation time: 72 h
How it was run: as §2

HDQ-P1 [7] = experiment: as above; details: incubation time: 72 h
How it was run: as §2

MFM-223 [8] = details: 72 h
How it was run: (§3)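 For viability, cells received 2.5 µl CellTiter-Blue for 2 h at 37 °C and fluorescence was read at 560/590 nm. Before this, breast cancer cell lines in 20 µl suspension had been incubated for 72 h on 384-well plates pre-loaded with compound dissolved in 5 µl medium. EC50 was obtained from a percent-inhibition dose-response fit censored at the highest concentration, after normalisation of each plate to vehicle and a positive kill control; rows with a zero drug sensitivity score were discarded.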

CAL-51 [9] = details: 72 h
How it was run: as §3

CAL-148 [10] = details: 72 h
How it was run: as §1

BT-549 [11] = details: 72 h
How it was run: as §1

MDA-MB-468 [12] = details: 72 h
Procedure: (§4)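 Drug sensitivity and resistance testing (DSRT) of breast cancer cell lines in 384-well plates, 5 concentrations in 10-fold dilutions over a compound-specific 10,000-fold range. After 72 h, cytotoxicity was read by CellTox Green fluorescence and viability by CellTiter-Glo luminescence (multiplexed), normalised to DMSO and benzethonium chloride controls. EC50 is the inflection point of the fitted dose-response curve (bottom asymptote free, so it can be relative for partial curves) and is censored at the highest tested concentration. Rows with DSS 0 (no meaningful response) were excluded.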

CAL-120 = details: 72 h
How it was run: as §1

HCC1143 [13] = details: 72 h
How it was run: as §1

MDA-MB-453 = details: 72 h
How it was run: as §1

CAL-85-1 [14] = details: 72 h
How it was run: as §1

Hs578T [15] = details: 72 h
How it was run: as §1

MDA-MB-231 [16] = details: 72 h
How it was run: as §1

HDQ-P1 [17] = details: 72 h
How it was run: as §1

CAL-51 [18] = details: 72 h; remark: listed apart in the source
Procedure: as §4

CAL-85-1 [19] = details: 72 h; remark: listed apart in the source
Procedure: as §4

Hs578T [20] = details: 72 h; remark: listed apart in the source
Procedure: as §4

MDA-MB-231 [21] = details: 72 h; remark: listed apart in the source
Procedure: as §4

MDA-MB-468 [22] = details: 72 h; remark: listed apart in the source
How it was run: as §3

MDA-MB-436 [23] = details: 72 h; remark: listed apart in the source
How it was run: as §3

BT-549 [24] = details: 72 h; remark: listed apart in the source
How it was run: as §3

HCC1143 [25] = details: 72 h; remark: listed apart in the source
How it was run: as §3

SK-BR-3 [26] = details: 72 h; remark: listed apart in the source
How it was run: as §3

Hs578T [27] = details: 72 h; remark: listed apart in the source
How it was run: as §3

HCC1599 [28] = details: 72 h; remark: listed apart in the source
How it was run: as §3

DU-4475 = details: 72 h
How it was run: as §3

CAL-85-1 [29] = details: 72 h; remark: listed apart in the source
How it was run: as §3

HDQ-P1 [30] = details: 72 h; remark: listed apart in the source
How it was run: as §3

BT-549 [31] = details: 72 h; remark: listed apart in the source
Procedure: as §4

MFM-223 [32] = details: 72 h; remark: listed apart in the source
How it was run: as §1

CAL-148 [33] = details: 72 h; remark: listed apart in the source
Procedure: as §4

## CCCCCCCCCCCCCCCCCCOP(=O)([O-])OC1CC[N+](C)(C)CC1 [Perifosine]
MCF-10A
  EC50, CellTiter-Glo: > 2500 nM
MDA-MB-436 [1]
  EC50, CellTiter-Glo: > 2500 nM
HCC1937
  EC50, CellTiter-Glo: 2080 nM

## C=C(c1ccc(C(=O)O)cc1)c1cc2c(cc1C)C(C)(C)CCC2(C)C [Bexarotene]
SK-BR-3 [2]
  EC50, CellTiter-Glo: 254 nM
HCC1599 [3]
  EC50, CellTiter-Glo: 165 nM

## Cn1c(CCCC(=O)O)nc2cc(N(CCCl)CCCl)ccc21 [Bendamustine] (10000 nM)
CAL-148 [4]
  normalised viability: 92.4%
CAL-51 [5]
  normalised viability: 99%
CAL-85-1 [6]
  normalised viability: 92.9%
HDQ-P1 [7]
  normalised viability: 113%

## CCC1(c2ccc(N)cc2)CCC(=O)NC1=O (stereo not drawn) [Aminoglutethimide] (10000 nM)
CAL-148 [4]
  normalised viability: 112%
CAL-51 [5]
  normalised viability: 85.2%
CAL-85-1 [6]
  normalised viability: 106%
HDQ-P1 [7]
  normalised viability: 120%

## CNCc1ccc(-c2[nH]c3cc(F)cc4c3c2CCNC4=O)cc1 [Rucaparib]
MFM-223 [8]
  EC50, CellTiter-Blue viability: 5.06 µM
CAL-51 [9]
  EC50, CellTiter-Blue viability: 8.87 µM
CAL-148 [10]
  EC50, CellTiter-Glo: 501 nM
BT-549 [11]
  EC50, CellTiter-Glo: > 10000 nM
MDA-MB-468 [12]
  EC50, CellTox Green: 2.01 nM

## Oc1nc(-c2ccc(C(F)(F)F)cc2)nc2c1CSCC2 [XAV-939] (10000 nM)
CAL-148 [4]
  normalised viability: 76.9%
CAL-51 [5]
  normalised viability: 89.2%
CAL-85-1 [6]
  normalised viability: 82.3%
HDQ-P1 [7]
  normalised viability: 76.2%

## NC(=O)Nc1cc(-c2cccc(F)c2)sc1C(=O)N[C@H]1CCCNC1 [AZD7762]
CAL-120
  EC50, CellTiter-Glo: 255 nM
MCF-10A
  EC50, CellTiter-Glo: 499 nM
MDA-MB-436 [1]
  EC50, CellTiter-Glo: 237 nM
BT-549 [11]
  EC50, CellTiter-Glo: 131 nM
HCC1143 [13]
  EC50, CellTiter-Glo: 361 nM
SK-BR-3 [2]
  EC50, CellTiter-Glo: 458 nM
MDA-MB-453
  EC50, CellTiter-Glo: 672 nM
HCC1937
  EC50, CellTiter-Glo: 593 nM
CAL-85-1 [14]
  EC50, CellTiter-Glo: 112 nM
Hs578T [15]
  EC50, CellTiter-Glo: 467 nM
HCC1599 [3]
  EC50, CellTiter-Glo: 236 nM
MDA-MB-231 [16]
  EC50, CellTiter-Glo: 193 nM
HDQ-P1 [17]
  EC50, CellTiter-Glo: 570 nM
MDA-MB-468 [12]
  EC50, CellTox Green: 26.5 nM
CAL-51 [18]
  EC50, CellTox Green: 500 nM
CAL-85-1 [19]
  EC50, CellTox Green: 75.8 nM
Hs578T [20]
  EC50, CellTox Green: 2.65 nM
MDA-MB-231 [21]
  EC50, CellTox Green: 745 nM

## O=P1(NCCCl)OCCCN1CCCl (stereo not drawn) [Ifosfamide] (10000 nM)
CAL-148 [4]
  normalised viability: 101%
CAL-51 [5]
  normalised viability: 107%
CAL-85-1 [6]
  normalised viability: 88.4%
HDQ-P1 [7]
  normalised viability: 125%

## NC(=O)Nc1cc(-c2cccc(F)c2)sc1C(=O)N[C@H]1CCCNC1 [AZD 7762]
MDA-MB-468 [22]
  EC50, CellTiter-Blue viability: 610 nM
MDA-MB-436 [23]
  EC50, CellTiter-Blue viability: 333 nM
BT-549 [24]
  EC50, CellTiter-Blue viability: 670 nM
HCC1143 [25]
  EC50, CellTiter-Blue viability: 705 nM
SK-BR-3 [26]
  EC50, CellTiter-Blue viability: 364 nM
Hs578T [27]
  EC50, CellTiter-Blue viability: 211 nM
HCC1599 [28]
  EC50, CellTiter-Blue viability: 87.7 nM
DU-4475
  EC50, CellTiter-Blue viability: 619 nM
CAL-51 [9]
  EC50, CellTiter-Blue viability: 0.564 µM
CAL-85-1 [29]
  EC50, CellTiter-Blue viability: 215 nM
HDQ-P1 [30]
  EC50, CellTiter-Blue viability: 508 nM

## Clc1ccc(Nc2nnc(Cc3ccncc3)c3ccccc23)cc1 [Vatalanib] (10000 nM)
CAL-148 [4]
  normalised viability: 84.5%
CAL-51 [5]
  normalised viability: 99.4%
CAL-85-1 [6]
  normalised viability: 83.2%
HDQ-P1 [7]
  normalised viability: 90.6%

## N#CCNC(=O)c1ccc(-c2ccnc(Nc3ccc(N4CCOCC4)cc3)n2)cc1 [Momelotinib]
CAL-120
  EC50, CellTiter-Glo: 1380 nM
MCF-10A
  EC50, CellTiter-Glo: 6590 nM
BT-549 [11]
  EC50, CellTiter-Glo: 2110 nM
HCC1143 [13]
  EC50, CellTiter-Glo: 1570 nM
SK-BR-3 [2]
  EC50, CellTiter-Glo: 2900 nM
CAL-85-1 [14]
  EC50, CellTiter-Glo: 2160 nM
Hs578T [15]
  EC50, CellTiter-Glo: 2240 nM
MDA-MB-231 [16]
  EC50, CellTiter-Glo: 5190 nM
MDA-MB-468 [12]
  EC50, CellTox Green: 5270 nM
BT-549 [31]
  EC50, CellTox Green: 3.3 µM
CAL-85-1 [19]
  EC50, CellTox Green: 1630 nM
MDA-MB-231 [21]
  EC50, CellTox Green: 77.2 nM

## CO[C@H]1/C=C\C=C(/C)C(=O)NC2=CC(=O)C(NCCN(C)C)=C(C[C@@H](C)C[C@H](OC)[C@H](O)[C@@H](C)/C=C(\C)[C@@H]1OC(N)=O)C2=O [Alvespimycin] (1000 nM)
CAL-148 [4]
  normalised viability: 4.23%
CAL-51 [5]
  normalised viability: 6.39%
CAL-85-1 [6]
  normalised viability: 18.6%
HDQ-P1 [7]
  normalised viability: 29.6%

## Cn1c(Nc2ccc(C(F)(F)F)cc2)nc2cc(Oc3ccnc(-c4ncc(C(F)(F)F)[nH]4)c3)ccc21 [RAF265] (1000 nM)
CAL-148 [4]
  normalised viability: 64.1%
CAL-51 [5]
  normalised viability: 48%
CAL-85-1 [6]
  normalised viability: 47.2%
HDQ-P1 [7]
  normalised viability: 34%

## Cc1ccc(-n2nc(C(C)(C)C)cc2NC(=O)Nc2ccc(OCCN3CCOCC3)c3ccccc23)cc1 [Doramapimod]
CAL-85-1 [29]
  EC50, CellTiter-Blue viability: 27.3 nM
MFM-223 [32]
  EC50, CellTiter-Glo: 2800 nM

## O=C1CCC(N2C(=O)c3ccccc3C2=O)C(=O)N1 (stereo not drawn) [Thalidomide]
CAL-148 [33]
  EC50, CellTox Green: > 10 µM

## CNCc1ccc(-c2[nH]c3cc(F)cc4c3c2CCNC4=O)cc1 [Rucaparib] (10000 nM)
CAL-148 [4]
  normalised viability: 37.5%
CAL-51 [5]
  normalised viability: 40.5%
CAL-85-1 [6]
  normalised viability: 45.8%
HDQ-P1 [7]
  normalised viability: 106%

## COc1cc2nccc(Oc3ccc(NC(=O)C4(C(=O)Nc5ccc(F)cc5)CC4)cc3)c2cc1OC [Cabozantinib] (1000 nM)
CAL-148 [4]
  normalised viability: 78.7%
CAL-51 [5]
  normalised viability: 86.5%
CAL-85-1 [6]
  normalised viability: 45.1%
HDQ-P1 [7]
  normalised viability: 88.5%

## CN(C)/N=N/c1[nH]cnc1C(N)=O [Dacarbazine]
CAL-120
  EC50, CellTiter-Glo: > 10000 nM

## CN[C@@H]1C[C@H]2O[C@@](C)([C@@H]1OC)n1c3ccccc3c3c4c(c5c6ccccc6n2c5c31)C(=O)N[C@H]4O [UCN-01] (10000 nM)
CAL-148 [4]
  normalised viability: 3.64%
CAL-51 [5]
  normalised viability: 5.97%
CAL-85-1 [6]
  normalised viability: 1.96%
HDQ-P1 [7]
  normalised viability: 2.76%

## CC1(C)NC(=O)N(c2ccc([N+](=O)[O-])c(C(F)(F)F)c2)C1=O [Nilutamide] (10000 nM)
CAL-148 [4]
  normalised viability: 99.8%
CAL-51 [5]
  normalised viability: 89.4%
CAL-85-1 [6]
  normalised viability: 90.7%
HDQ-P1 [7]
  normalised viability: 136%

## O=C1CCC(N2C(=O)c3ccccc3C2=O)C(=O)N1 (stereo not drawn) [Thalidomide] (10000 nM)
CAL-148 [4]
  normalised viability: 106%
CAL-51 [5]
  normalised viability: 90.6%
CAL-85-1 [6]
  normalised viability: 104%
HDQ-P1 [7]
  normalised viability: 105%
